Structures can show the parent of a compound that is named as a salt.
Legend:
Assay type in all cases: biochemical
Human PDE4C1 = target: T1, Human PDE4C1 (Homo sapiens, UniProt Q08493); assay: PDE4C1 Scintillation Proximity Assay (SPA), inhibition of enzyme activity; conditions: geometric mean of 2-7 determinations unless otherwise indicated (b: ≥8 determinations; c: single determination), 1 μM cAMP, 30 min at 25° C., read-out: Human PDE4C FL
T1 construct: His6 (N); FLAG (C); made in house; host or cells: insect cells (baculovirus, pFastBac)
T1 sequence (Q08493 2-712): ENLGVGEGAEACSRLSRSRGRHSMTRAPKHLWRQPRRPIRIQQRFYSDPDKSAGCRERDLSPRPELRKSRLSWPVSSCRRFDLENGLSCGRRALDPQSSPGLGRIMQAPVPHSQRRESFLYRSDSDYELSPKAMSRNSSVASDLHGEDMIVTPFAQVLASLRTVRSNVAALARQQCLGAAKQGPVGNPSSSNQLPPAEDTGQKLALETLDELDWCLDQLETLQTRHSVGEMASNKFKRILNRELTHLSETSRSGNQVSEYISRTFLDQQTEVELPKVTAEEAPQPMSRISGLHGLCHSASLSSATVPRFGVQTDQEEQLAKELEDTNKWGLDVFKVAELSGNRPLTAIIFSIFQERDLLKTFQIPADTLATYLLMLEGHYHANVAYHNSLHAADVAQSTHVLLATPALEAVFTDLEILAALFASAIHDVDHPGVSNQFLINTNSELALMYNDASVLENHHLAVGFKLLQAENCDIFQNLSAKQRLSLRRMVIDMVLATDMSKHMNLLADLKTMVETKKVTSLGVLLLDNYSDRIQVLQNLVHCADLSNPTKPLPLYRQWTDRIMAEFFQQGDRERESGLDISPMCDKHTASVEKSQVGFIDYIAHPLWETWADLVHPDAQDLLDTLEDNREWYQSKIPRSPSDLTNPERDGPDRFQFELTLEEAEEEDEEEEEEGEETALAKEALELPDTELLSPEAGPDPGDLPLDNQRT
Experimental: (§1) The recombinant Bacmid was isolated and used to transfect insect cells to generate a viral stock. To generate cell paste for purification, insect cells were infected with the virus stock and cells were harvested 72 hours after infection. Insect cell paste was lysed and after centrifugation, the supernatant was batch bound to Ni-NTA agarose (GE Healthcare) and eluted with 250 mM imidazole. This eluate was diluted with FLAG buffer (50 mM Tris HCL pH 7.5, 100 mM NaCl, 5% Glycerol, 1 mM TCEP with protease inhibitors) and batch bound to ant-FLAG M2 agarose (Sigma) overnight at 4° C. The agarose was packed into a column, washed with buffer and eluted with buffer containing elute using 250 ug/ml Flag-peptide. Fractions were analyzed using SDS-PAGE Coomassie blue staining and pooled based on purity. Pooled fractions were chromatographed on a S200 120 ml column (GE Healthcare) in 50 mM Tris HCL pH 7.5, 150 mM NaCl, 10% Glycerol, 2 mM TCEP with protease inhibitors. PDE4C1 fractions were analyzed by SDS-PAGE Coomassie blue staining, pooled based on purity, dialyzed against 50 mM Tris HCL pH 7.5, 100 mM NaCl, 20% Glycerol, 2 mM TCEP, frozen and stored at −80° C.
(§2) The PDE4A3, PDE4B1, PDE4C1 and PDE4D3 assays use the Scintillation Proximity Assay (SPA) technology to measure the inhibition of human recombinant […], PDE4C1, and PDE4D3 enzyme activity by compounds in vitro. The PDE4A1, PDE4B3, PDE4C1, and PDE4D3 assays are run in parallel using identical parameters, except for the concentration of enzyme (80 pM PDE4A3, 40 pM PDE4B3, 40 pM PDE4C1 and 10 pM PDE4D). The assays are performed in a 384-well format with 50 uL assay buffer (50 mM TRIS pH7.5; 1.3 mM MgCl2; 0.01% Brij) containing enough PDE4A3, PDE4B1, PDE4C1, and PDE4D to convert ˜20% of substrate (1 μM cAMP consisting of 20 nM 3H-cAMP+[…] cold cAMP) and a range of inhibitors. Reactions are incubated for 30 min at 25° C. The addition of 20 uL of 8 mg/ml yitrium silicate SPA beads (Perkin Elmer) stops the reaction. The plates are sealed (TopSeal, Perkin Elmer) and the beads are allowed to settle for 8 hrs, after which they are read on the Trilux Microbeta overnight.

human PDE4D3 = target: T2, human PDE4D3 (Homo sapiens, UniProt Q08499); assay: PDE4D3 Scintillation Proximity Assay (SPA), inhibition of enzyme activity; conditions: geometric mean of 2-7 determinations unless otherwise indicated (b: ≥8 determinations; c: single determination); 1 μM cAMP, 30 min at 25° C.; read-out: Human PDE4D FL; IC50
T2 construct: His6 (C); made in house; host or cells: insect cells (baculovirus, pFastBac)
T2 sequence (Q08499 186-808): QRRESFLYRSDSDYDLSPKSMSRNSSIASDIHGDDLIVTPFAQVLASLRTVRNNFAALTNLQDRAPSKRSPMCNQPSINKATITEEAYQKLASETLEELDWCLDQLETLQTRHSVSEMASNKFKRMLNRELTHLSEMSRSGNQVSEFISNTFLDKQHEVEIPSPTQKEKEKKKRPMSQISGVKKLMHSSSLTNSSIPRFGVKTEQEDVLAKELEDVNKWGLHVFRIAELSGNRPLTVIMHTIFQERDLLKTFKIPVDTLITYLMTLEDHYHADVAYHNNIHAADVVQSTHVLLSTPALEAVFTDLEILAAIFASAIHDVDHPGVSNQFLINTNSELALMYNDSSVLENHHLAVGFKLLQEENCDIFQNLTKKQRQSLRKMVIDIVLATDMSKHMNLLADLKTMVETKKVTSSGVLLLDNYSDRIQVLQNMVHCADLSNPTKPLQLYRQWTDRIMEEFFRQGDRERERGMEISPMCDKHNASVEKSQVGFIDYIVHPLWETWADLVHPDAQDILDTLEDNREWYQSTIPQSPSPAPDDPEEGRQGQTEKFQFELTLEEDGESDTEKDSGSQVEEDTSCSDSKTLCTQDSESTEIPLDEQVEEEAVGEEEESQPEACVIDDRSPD
Experimental: The recombinant Bacmid was isolated and used to transfect insect cells to generate a viral stock. To generate cell paste for purification, insect cells were infected and cells were harvested 72 hours after infection. Insect cell paste was lysed and after centrifugation, the supernatant was chromatographed on Ni-NTA agarose (Qiagen) as described in Seeger, T. F. et al., Brain Research 985 (2003) 113-126. Ni-NTA agarose eluting fractions containing PDE4 were pooled, diluted with Q Buffer A (50 mM Tris HCl pH 8, 4% glycerol, 100 mM NaCl, 1 mM TCEP, Protease inhibitors EDTA-free (Roche)) to reduce NaCl to ˜200 mM, and loaded on a Q Sepharose (GE Healthcare) column. After washing with Q buffer A to baseline, PDE4D was eluted with a gradient from 10% to 60% of Buffer B (50 mM Tris HCl pH 8, 1 M NaCl, 4% glycerol, 1 mM TCEP). PDE4D fractions were analyzed by SDS-PAGE Coomassie blue staining, pooled based on purity, frozen and stored at −80° C.
as §2

Human PDE4B1 = target: T3, Human PDE4B1 (Homo sapiens, UniProt Q07343, S133E/S654A/S659A/S661A); assay: PDE4B1 Scintillation Proximity Assay (SPA), inhibition of enzyme activity; conditions: geometric mean of 2-7 determinations unless otherwise indicated (b: ≥8 determinations; c: single determination); 1 μM cAMP, 30 min at 25° C.; read-out: Human PDE4B FL; IC50
T3 construct: His6 (N); thrombin cleavage site (N); made in house; host or cells: insect cells (baculovirus, pFastBac)
T3 sequence (Q07343 122-736 S133E/S654A/S659A/S661A): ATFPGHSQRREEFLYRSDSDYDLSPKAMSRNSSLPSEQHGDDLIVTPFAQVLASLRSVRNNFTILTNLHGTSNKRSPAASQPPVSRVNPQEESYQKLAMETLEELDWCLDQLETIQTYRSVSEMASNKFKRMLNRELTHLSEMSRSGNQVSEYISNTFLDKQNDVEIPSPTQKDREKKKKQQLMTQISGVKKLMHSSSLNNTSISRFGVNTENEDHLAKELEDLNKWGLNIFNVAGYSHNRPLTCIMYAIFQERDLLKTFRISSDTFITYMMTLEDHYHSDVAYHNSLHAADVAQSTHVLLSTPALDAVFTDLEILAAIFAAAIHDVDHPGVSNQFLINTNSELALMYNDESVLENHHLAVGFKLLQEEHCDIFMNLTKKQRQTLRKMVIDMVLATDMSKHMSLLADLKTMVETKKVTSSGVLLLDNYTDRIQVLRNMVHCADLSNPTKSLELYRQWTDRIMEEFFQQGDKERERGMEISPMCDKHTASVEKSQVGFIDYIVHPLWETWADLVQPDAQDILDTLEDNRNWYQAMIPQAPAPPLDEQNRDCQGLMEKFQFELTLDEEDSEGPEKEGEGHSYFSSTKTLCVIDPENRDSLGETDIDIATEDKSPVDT
Experimental: The recombinant Bacmid was isolated and used to transfect insect cells to generate a viral stock. To generate cell paste for purification, insect cells were infected with the virus stock and cells were harvested 72 hours after infection as described in Seeger, T. F. et al., Brain Research 985 (2003) 113-126. Insect cell paste was lysed and after centrifugation, the supernatant was chromatographed on Ni-NTA agarose (Qiagen) as described in Seeger, T. F. et al., Brain Research 985 (2003) 113-126. Ni-NTA agarose eluting fractions containing PDE4 were pooled, diluted with Q buffer A (20 mM Tris HCl pH 8, 5% glycerol, 1 mM TCEP) to reduce NaCl to ˜100 mM and loaded on a Source 15Q (GE Healthcare) column. After washing with Q buffer A/10% buffer B to baseline, PDE4D was eluted with a gradient from 10% to 60% of Buffer B (20 mM Tris HCl pH 8, 1 M NaCl, 5% glycerol, 1 mM TCEP). PDE4D fractions were analyzed by SDS-PAGE Coomassie blue staining, pooled based on purity, frozen and stored at −80° C.
as §2

Human PDE4A3 = target: T4, Human PDE4A3 (Homo sapiens, UniProt P27815); assay: PDE4A3 Scintillation Proximity Assay (SPA), inhibition of enzyme activity; conditions: geometric mean of 2-7 determinations unless otherwise indicated (b: ≥8 determinations; c: single determination), 1 μM cAMP, 30 min at 25° C., read-out: Human PDE4A FL
T4 construct: His6 (N); FLAG (C); made in house; host or cells: insect cells (baculovirus, pFastBac)
T4 sequence (P27815 2-825 isoform P27815-6): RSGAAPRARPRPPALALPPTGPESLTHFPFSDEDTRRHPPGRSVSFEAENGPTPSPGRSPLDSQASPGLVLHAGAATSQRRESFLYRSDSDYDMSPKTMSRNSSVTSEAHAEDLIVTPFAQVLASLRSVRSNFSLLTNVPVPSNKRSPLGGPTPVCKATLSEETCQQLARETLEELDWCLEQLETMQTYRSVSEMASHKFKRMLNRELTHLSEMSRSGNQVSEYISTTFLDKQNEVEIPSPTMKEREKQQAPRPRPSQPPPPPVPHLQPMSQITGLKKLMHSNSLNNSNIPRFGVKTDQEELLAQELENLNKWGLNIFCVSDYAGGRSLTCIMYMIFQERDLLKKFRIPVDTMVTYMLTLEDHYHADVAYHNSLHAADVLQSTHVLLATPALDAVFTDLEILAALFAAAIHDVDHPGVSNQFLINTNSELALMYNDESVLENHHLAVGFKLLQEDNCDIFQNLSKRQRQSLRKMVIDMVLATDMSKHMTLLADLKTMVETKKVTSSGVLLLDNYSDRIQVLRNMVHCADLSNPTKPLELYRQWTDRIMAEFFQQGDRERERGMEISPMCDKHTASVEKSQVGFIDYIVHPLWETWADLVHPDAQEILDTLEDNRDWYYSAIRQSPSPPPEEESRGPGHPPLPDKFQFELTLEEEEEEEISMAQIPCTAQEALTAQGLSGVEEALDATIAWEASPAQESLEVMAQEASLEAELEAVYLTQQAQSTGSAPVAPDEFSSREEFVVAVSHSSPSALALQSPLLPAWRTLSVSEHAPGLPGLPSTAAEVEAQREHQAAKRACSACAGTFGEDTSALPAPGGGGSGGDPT
Description: as §1, with “Human PDE4A3 coding sequence (amino acids 2 to 825 from the sequence with accession number NP_001104779) was cloned into the baculovirus expression vector pFastBac (Invitrogen) engineered to include an N-terminal His6 affinity tag and a c-terminal FLAG affinity tag to aid in purification. The recombinant” for “The recombinant”, “protease inhibitors. PDE4A3 fractions were” for “protease inhibitors. PDE4C1 fractions were”
as §2

| IC50 (Human PDE4C1) [nM] | IC50 (human PDE4D3) [nM] | IC50 (Human PDE4B1) [nM] | IC50 (Human PDE4A3) [nM] | Structure (SMILES) |
| --- | --- | --- | --- | --- |
| 1190 | > 18400 | 474 | 212 | COc1cc(-c2c(C(=O)NC3CC3)nn3cccnc23)ccn1 [Example 42, N-cyclopropyl-3-(2-methoxypyridin-4-yl)pyrazolo[1,5-a]pyrimidine-2-carboxamide] |
| 60.6 | 4150 | 34.6 | 61.4 | CCCNC(=O)c1nn2cccnc2c1-c1ccc(Cl)cc1 [Example 2, 3-(4-Chlorophenyl)-N-propylpyrazolo[1,5-a]pyrimidine-2-carboxamide] |
| 314 | > 16500 | 488 | 144 | Cc1cc(Cl)ccc1-c1c(C(=O)NC(C)C)nn2cccnc12 [Example 51, 3-(4-chloro-2-methylphenyl)-N-(propan-2-yl)pyrazolo[1,5-a]pyrimidine-2-carboxamide] |
| 710 | > 30000 | 1860 | 1110 | CN(C(=O)c1nn2cccnc2c1-c1ccc(Cl)cc1)C1CC1 [Example 35, 3-(4-chlorophenyl)-N-cyclopropyl-N-methylpyrazolo[1,5-a]pyrimidine-2-carboxamide, hydrochloride salt] |
| 124 | 8810 | 273 | 167 | Cc1cc(C#N)c(F)cc1-c1c(C(=O)NC2CCC2)nn2cccnc12 [Example 22, 3-(4-cyano-5-fluoro-2-methylphenyl)-N-cyclobutylpyrazolo[1,5-a]pyrimidine-2-carboxamide] |
| 626 | 4910 | 488 | 411 | CC(C)NC(=O)c1nn2cccnc2c1-c1ccc(Cl)cc1 [Example 26, 3-(4-chlorophenyl)-N-(propan-2-yl)pyrazolo[1,5-a]pyrimidine-2-carboxamide] |
| 17 | 680 | 23.6 | 8.09 | Cc1ccc(-c2c(C(=O)NC3CC3)nn3cccnc23)cc1F [Example 70, N-cyclopropyl-3-(3-fluoro-4-methylphenyl)pyrazolo[1,5-a]pyrimidine-2-carboxamide] |
| 650 | > 15500 | 226 | 47.1 | O=C(NC1CC1)c1nn2cccnc2c1-c1ccc2ocnc2c1 [Example 60, 3-(1,3-benzoxazol-5-yl)-N-cyclopropylpyrazolo[1,5-a]pyrimidine-2-carboxamide] |
| 435 | > 28500 | 2070 | 663 | CNC(=O)c1nn2cccnc2c1-c1ccc(Cl)cc1 [Example 73, 3-(4-chlorophenyl)-N-methylpyrazolo[1,5-a]pyrimidine-2-carboxamide] |
|  | > 30000 | 443 |  | N#Cc1ccc(-c2c(C(=O)NC3CC3)nn3cccnc23)c(F)c1 [Example 76, 3-(4-cyano-2-fluorophenyl)-N-cyclopropylpyrazolo[1,5-a]pyrimidine-2-carboxamide] |
|  | 27000 | 2180 |  | O=C(Nc1nn2cccnc2c1-c1ccc(Cl)c(F)c1)c1ccccc1 [Example 30, N-[3-(4-chloro-3-fluorophenyl)pyrazolo[1,5-a]pyrimidin-2-yl]benzamide] |
|  | 5990 | 45.8 |  | O=C(c1nn2cccnc2c1-c1cc(Cl)ccc1F)N1CCC1 [Example 74, azetidin-1-yl[3-(5-chloro-2-fluorophenyl)pyrazolo[1,5-a]pyrimidin-2-yl]methanone] |
|  | 2360 | 68 |  | O=C(NC1CC1(F)F)c1nn2cccnc2c1-c1ccc(Cl)cc1 (stereo not drawn) [Example 40, 3-(4-chlorophenyl)-N-(2,2-difluorocyclopropyl)pyrazolo[1,5-a]pyrimidine-2-carboxamide] |
|  | 691 | 31.5 |  | O=C(c1nn2cccnc2c1-c1ccnc(OC(F)F)c1)N1CCC1 [Example 37, azetidin-1-yl{3-[2-(difluoromethoxy)pyridin-4-yl]pyrazolo[1,5-a]pyrimidin-2-yl}methanone] |
|  | 3010 | 132 |  | O=C(NC1CC1)c1nn2cccnc2c1-c1cncc(Cl)c1 [Example 29, 3-(5-chloropyridin-3-yl)-N-cyclopropylpyrazolo[1,5-a]pyrimidine-2-carboxamide] |
|  | 720 | 9.98 |  | O=C(NC1CC1)c1nn2cccnc2c1-c1ccc(Cl)c(Cl)c1 [Example 32, N-cyclopropyl-3-(3,4-dichlorophenyl)pyrazolo[1,5-a]pyrimidine-2-carboxamide, hydrochloride salt] |
|  | 706 | 51.1 |  | O=C(NC1CC1)c1nn2cccnc2c1-c1ccnc(OC(F)F)c1 [Example 38, N-cyclopropyl-3-[2-(difluoromethoxy)pyridin-4-yl]pyrazolo[1,5-a]pyrimidine-2-carboxamide, formate salt] |
|  | 350 | 5.32 |  | O=C(c1nn2cccnc2c1-c1cc(F)c(Cl)c(F)c1)N1CCC1 [Example 41, azetidin-1-yl[3-(4-chloro-3,5-difluorophenyl)pyrazolo[1,5-a]pyrimidin-2-yl]methanone] |

— patent US10131669B2, “Pyrazolopyrimidine compounds” (Pfizer Inc., priority 2014, dated 2018)
